Measured values as given in paper PMC4886219, “Bioengineered kidney tubules efficiently excrete uremic toxins” (Scientific Reports, 2016).
Counter-ions that a name gives are not always drawn. Like-named read-outs stand apart in the source and are kept apart here.

What was measured:
[1] = set-up: method as in Duranton et al.[6]; details: mean plasma levels in ESRD patients; ref Duranton et al.[6]; cited from earlier work
OAT1 [2] = biological target: T1, OAT1 (Homo sapiens, UniProt Q4U2R8); test: Fluorescein inhibition assay in ciPTEC-OAT1 flat monolayers
T1 sequence (Q4U2R8 1-563): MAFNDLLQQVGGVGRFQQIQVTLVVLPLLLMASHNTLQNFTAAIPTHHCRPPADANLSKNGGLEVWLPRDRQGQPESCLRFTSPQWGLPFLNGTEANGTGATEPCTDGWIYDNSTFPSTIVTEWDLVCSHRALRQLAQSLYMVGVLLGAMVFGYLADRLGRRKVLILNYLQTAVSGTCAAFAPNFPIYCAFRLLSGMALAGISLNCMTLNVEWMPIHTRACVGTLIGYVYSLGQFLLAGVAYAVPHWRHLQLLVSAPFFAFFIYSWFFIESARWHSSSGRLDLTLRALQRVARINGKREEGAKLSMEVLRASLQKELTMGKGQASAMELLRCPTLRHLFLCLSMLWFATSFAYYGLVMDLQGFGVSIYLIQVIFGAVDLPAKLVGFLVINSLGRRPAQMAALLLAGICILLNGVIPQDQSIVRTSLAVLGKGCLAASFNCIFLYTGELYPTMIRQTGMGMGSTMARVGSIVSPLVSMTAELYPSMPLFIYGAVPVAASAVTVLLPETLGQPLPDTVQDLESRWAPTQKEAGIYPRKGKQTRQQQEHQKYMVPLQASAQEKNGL

OAT3 = biological target: T2, OAT3 (Homo sapiens, UniProt Q8TCC7); test: Fluorescein inhibition assay in ciPTEC-OAT3 flat monolayers
T2 sequence (Q8TCC7 1-542): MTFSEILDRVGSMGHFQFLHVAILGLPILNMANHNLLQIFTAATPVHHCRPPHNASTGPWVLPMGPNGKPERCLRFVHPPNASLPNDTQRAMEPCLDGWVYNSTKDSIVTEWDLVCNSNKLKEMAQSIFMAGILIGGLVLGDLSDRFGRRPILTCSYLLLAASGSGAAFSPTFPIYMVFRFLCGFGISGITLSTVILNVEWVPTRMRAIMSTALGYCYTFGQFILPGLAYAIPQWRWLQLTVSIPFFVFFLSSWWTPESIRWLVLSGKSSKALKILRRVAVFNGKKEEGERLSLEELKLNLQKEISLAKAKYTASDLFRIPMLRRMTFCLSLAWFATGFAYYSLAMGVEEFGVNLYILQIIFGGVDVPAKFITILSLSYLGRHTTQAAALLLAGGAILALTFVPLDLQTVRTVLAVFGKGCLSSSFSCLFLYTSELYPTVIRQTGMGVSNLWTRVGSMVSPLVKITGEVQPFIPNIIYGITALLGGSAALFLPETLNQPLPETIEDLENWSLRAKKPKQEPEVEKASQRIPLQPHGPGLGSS

[3] = system: bioengineered renal tubules (ciPTEC-OAT1 on HFM); test: Transepithelial transport (clearance) of indoxyl sulfate and kynurenic acid in bioengineered renal tubules; assay type: cell-based; details: absence of human serum albumin; perfusion 10 min, 100 μM toxin
OAT1 [4] = biological target: T1, OAT1; test: Uptake of indoxyl sulfate and kynurenic acid by ciPTEC-OAT1 (LC-MS/MS); details: 10 min, 37°C
OAT1 [5] = biological target: T1, OAT1; test: in vitro; details: pH 7.4, inhibition of indoxyl sulfate uptake
BCRP = system: BCRP; set-up: method as in earlier work; details: vesicular transport assay; ref 14 (Mutsaers et al.); cited from earlier work
MRP4 = system: MRP4; set-up: method as in earlier work; details: vesicular transport assay; ref 14 (Mutsaers et al.); cited from earlier work
[6] = system: parent ciPTEC models lacking OAT1; test: MTT cell viability assay in parent ciPTEC lacking OAT1; assay type: cell-based, human; details: parent ciPTEC lacking OAT1, in presence of efflux pump inhibitors
Method: After 4 hours of incubation, the intracellular
Monolayer polarization and transepithelial barrier function
Next, cells were incubated with
The mR NA expression level s of
PCR Master Mix (Applied Biosystems, Branchburg, NJ).

[7] = read-out: ciPTEC-OAT1 IC50 (inhibition of fluorescein uptake), 1 μM fluorescein, 10 min, 37°C, flat monolayers, mean ± S.E.M.
[8] = read-out: ciPTEC-OAT3 IC50 (inhibition of fluorescein uptake), 1 μM fluorescein, 10 min, 37°C, flat monolayers, mean ± S.E.M.

SMILES | Cm in ESRD patients [1] [µM] | IC50 (OAT1 [2]) [µM] | IC50 (OAT3) [µM] | other results
Cc1ccc(O[C@@H]2O[C@H](C(=O)O)[C@@H](O)[C@H](O)[C@H]2O)cc1 [p-Cresylglucuronide] | 44 | – | – | IC50 (OAT1 [2]; [7]): 2650 ± 922 µM; IC50 (OAT3; [8]): 588 ± 81 µM
O=C(O)c1cc(=O)c2ccccc2[nH]1 [Kynurenic acid] | – | 6 ± 1 | 6 ± 1 | transepithelial clearance [3]: 72 ± 20 μl.min^−1.cm^−2; uptake by ciPTEC-OAT1 monolayers (OAT1 [4]; toxin 3 μM): 2.7 ± 0.3 pmol.min^−1.cm^−2; uptake by ciPTEC-OAT1 monolayers (OAT1 [4]; toxin 30 μM): 5.9 ± 0.5 pmol.min^−1.cm^−2; inhibition at 10 min, 100 μM (OAT1 [5]): 64 ± 13%
Nc1ccccc1C(=O)C[C@H](N)C(=O)O [L-Kynurenine] | 6 | 65 ± 8 | 219 ± 66 | –
O=C(O)Cc1c[nH]c2ccccc12 [Indole-3-acetic acid] | – | 19 ± 2 | 148 ± 60 | –
O=C(O)[C@H]1O[C@@H](Oc2c[nH]c3ccccc23)[C@H](O)[C@@H](O)[C@@H]1O [Indoxyl-β-glucuronide] | 9 | 492 ± 68 | 527 ± 218 | –
O=C(O)CNC(=O)c1ccccc1 [Hippuric acid] | 398 | – | 22 ± 9 | –
Cc1ccc(OS(=O)(=O)O)cc1 [p-Cresylsulfate] | 675 | – | – | IC50 (OAT1 [2]; [7]): 79 ± 14 µM; IC50 (OAT3; [8]): 112 ± 19 µM
O=S(=O)(O)Oc1c[nH]c2ccccc12 [Indoxyl sulfate] | 110 | – | – | inhibition of BCRP (in words) (BCRP): potent inhibitors; inhibition of MRP4 (in words) (MRP4): potent inhibitors; TC50 (cell viability, MTT) [6]: 3000 ± 500 µM
